Source: the supplement of paper PMC8671470

What follows are compounds tested on HL-60 (assay: area under dose-response curve (viability, 1 nM-10 uM) (fraction (0-1)); higher = more sensitive). Details: 72 h; co-treatment: GSK2194069 100 nM.
Procedure, shortened: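 HL-60 cells grown in RPMI 1640 with 10% FBS were rescreened against the full library in 384-well plates, in duplicate, at five tenfold concentrations from 1 to 10,000 nM, alongside DMSO or 100 nM of one of three metabolic inhibitors for 72 h at 37 °C, 5% CO2. Reference wells contained DMSO or 10 μM proteasome inhibitor. Viability was read with CellTiter-Glo and normalised to these reference wells, and where reported, area under the curve was taken from four-parameter log-logistic fits in drc and PharmacoGx.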

Compound | area under dose-response curve
COc1ccc(-c2ccccc2)cc1NS(=O)(=O)c1cc(Cl)cc(Cl)c1O | < 0.0301
C[C@H](NC(=O)c1sccc1OCc1ccc(Cl)cc1)c1ccccc1 | < 0.0301
O=C(O)c1cc(Cl)cc(Cl)c1O [3,5-Dichlorosalicylic Acid] | < 0.0301
O=C(O)C(=O)CBr [3-bromopyruvic acid] | < 0.0301
NS(=O)(=O)c1ccc([N+](=O)[O-])cc1 [4-Nitrobenzenesulfonamide] | < 0.0301
Cc1ccccc1C(C(=O)NC1CCCCC1)N(C(=O)Cn1ccnc1C)c1cccc(F)c1 (stereo unspecified) [AGI-5198] | < 0.0301
CC(C)(C#N)c1cc(Cn2cncn2)cc(C(C)(C)C#N)c1 [Anastrozole] | < 0.0301
O=C(O)C1=CC(=C(c2ccc(O)c(C(=O)O)c2)c2ccc(O)c(C(=O)O)c2)C=CC1=O [Aurintricarboxylic acid] | < 0.0301

Same assay, conditions: 72 h; co-treatment: pictilisib 100 nM

Compound | area under dose-response curve
CN(C)C(=O)[C@H](O)[C@H](Cc1ccccc1)NC(=O)c1cc2cc(Cl)ccc2[nH]1 | < 0.0301
COc1ccc(CNC(=O)Nc2ncc([N+](=O)[O-])s2)cc1 | < 0.0301
CCOP(=O)(OCC)C(=Cc1cc(C(C)(C)C)c(O)c(C(C)(C)C)c1)P(=O)(OCC)OCC | < 0.0301
COc1ccc(-c2ccccc2)cc1NS(=O)(=O)c1cc(Cl)cc(Cl)c1O | < 0.0301
C[C@H](NC(=O)c1sccc1OCc1ccc(Cl)cc1)c1ccccc1 | < 0.0301
O=C(O)c1cc(Cl)cc(Cl)c1O [3,5-Dichlorosalicylic Acid] | < 0.0301
O=C(O)C(=O)CBr [3-bromopyruvic acid] | < 0.0301
NS(=O)(=O)c1ccc([N+](=O)[O-])cc1 [4-Nitrobenzenesulfonamide] | < 0.0301
Cc1ccccc1C(C(=O)NC1CCCCC1)N(C(=O)Cn1ccnc1C)c1cccc(F)c1 (stereo unspecified) [AGI-5198] | < 0.0301
CC(C)(C#N)c1cc(Cn2cncn2)cc(C(C)(C)C#N)c1 [Anastrozole] | < 0.0301
O=C(O)C1=CC(=C(c2ccc(O)c(C(=O)O)c2)c2ccc(O)c(C(=O)O)c2)C=CC1=O [Aurintricarboxylic acid] | < 0.0301

Each compound was assayed on K-562 (assay: not given). Details: 72 h.
Procedure, shortened: (§1)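 In 384-well plates holding acoustically pre-printed compounds at five tenfold doses from 1 to 10,000 nM, in duplicate, fifteen myeloid leukaemia cell lines were grown in RPMI 1640 for 72 h at 37 °C with 5% CO2. Luminescent ATP viability was scaled between vehicle and a positive control at 10 µM. The IC50 was then taken from log-logistic dose–response fits with four parameters.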

Compound | IC50 (cell viability)
CN(C)C(=O)[C@H](O)[C@H](Cc1ccccc1)NC(=O)c1cc2cc(Cl)ccc2[nH]1 | > 10 µM
COc1ccc(CNC(=O)Nc2ncc([N+](=O)[O-])s2)cc1 | > 10 µM
CCOP(=O)(OCC)C(=Cc1cc(C(C)(C)C)c(O)c(C(C)(C)C)c1)P(=O)(OCC)OCC | > 10 µM
COc1ccc(-c2ccccc2)cc1NS(=O)(=O)c1cc(Cl)cc(Cl)c1O | > 10 µM
C[C@H](NC(=O)c1sccc1OCc1ccc(Cl)cc1)c1ccccc1 | > 10 µM
O=C(O)c1cc(Cl)cc(Cl)c1O [3,5-Dichlorosalicylic Acid] | > 10 µM
O=C(O)C(=O)CBr [3-bromopyruvic acid] | > 10 µM
NS(=O)(=O)c1ccc([N+](=O)[O-])cc1 [4-Nitrobenzenesulfonamide] | > 10 µM
Cc1ccccc1C(C(=O)NC1CCCCC1)N(C(=O)Cn1ccnc1C)c1cccc(F)c1 (stereo unspecified) [AGI-5198] | > 10 µM
CC(C)(C#N)c1cc(Cn2cncn2)cc(C(C)(C)C#N)c1 [Anastrozole] | > 10 µM
O=C(O)C1=CC(=C(c2ccc(O)c(C(=O)O)c2)c2ccc(O)c(C(=O)O)c2)C=CC1=O [Aurintricarboxylic acid] | > 10 µM

The compounds below were run on BV-173 (assay: not given). Details: 72 h.
Procedure, shortened: as §1

Compound | IC50 (cell viability)
CN(C)C(=O)[C@H](O)[C@H](Cc1ccccc1)NC(=O)c1cc2cc(Cl)ccc2[nH]1 | > 10 µM
COc1ccc(CNC(=O)Nc2ncc([N+](=O)[O-])s2)cc1 | > 10 µM
CCOP(=O)(OCC)C(=Cc1cc(C(C)(C)C)c(O)c(C(C)(C)C)c1)P(=O)(OCC)OCC | > 10 µM
COc1ccc(-c2ccccc2)cc1NS(=O)(=O)c1cc(Cl)cc(Cl)c1O | > 10 µM
C[C@H](NC(=O)c1sccc1OCc1ccc(Cl)cc1)c1ccccc1 | > 10 µM
O=C(O)c1cc(Cl)cc(Cl)c1O [3,5-Dichlorosalicylic Acid] | > 10 µM
O=C(O)C(=O)CBr [3-bromopyruvic acid] | > 10 µM
NS(=O)(=O)c1ccc([N+](=O)[O-])cc1 [4-Nitrobenzenesulfonamide] | > 10 µM
Cc1ccccc1C(C(=O)NC1CCCCC1)N(C(=O)Cn1ccnc1C)c1cccc(F)c1 (stereo unspecified) [AGI-5198] | > 10 µM
CC(C)(C#N)c1cc(Cn2cncn2)cc(C(C)(C)C#N)c1 [Anastrozole] | > 10 µM
O=C(O)C1=CC(=C(c2ccc(O)c(C(=O)O)c2)c2ccc(O)c(C(=O)O)c2)C=CC1=O [Aurintricarboxylic acid] | 2.72 µM

What follows are compounds tested on KCL-22 (assay: not given). Details: 72 h.
Procedure, shortened: as §1

Compound | IC50 (cell viability)
CN(C)C(=O)[C@H](O)[C@H](Cc1ccccc1)NC(=O)c1cc2cc(Cl)ccc2[nH]1 | > 10 µM
COc1ccc(CNC(=O)Nc2ncc([N+](=O)[O-])s2)cc1 | > 10 µM
CCOP(=O)(OCC)C(=Cc1cc(C(C)(C)C)c(O)c(C(C)(C)C)c1)P(=O)(OCC)OCC | > 10 µM
COc1ccc(-c2ccccc2)cc1NS(=O)(=O)c1cc(Cl)cc(Cl)c1O | > 10 µM
C[C@H](NC(=O)c1sccc1OCc1ccc(Cl)cc1)c1ccccc1 | > 10 µM
O=C(O)c1cc(Cl)cc(Cl)c1O [3,5-Dichlorosalicylic Acid] | > 10 µM
O=C(O)C(=O)CBr [3-bromopyruvic acid] | > 10 µM
NS(=O)(=O)c1ccc([N+](=O)[O-])cc1 [4-Nitrobenzenesulfonamide] | > 10 µM
Cc1ccccc1C(C(=O)NC1CCCCC1)N(C(=O)Cn1ccnc1C)c1cccc(F)c1 (stereo unspecified) [AGI-5198] | > 10 µM
CC(C)(C#N)c1cc(Cn2cncn2)cc(C(C)(C)C#N)c1 [Anastrozole] | > 10 µM
O=C(O)C1=CC(=C(c2ccc(O)c(C(=O)O)c2)c2ccc(O)c(C(=O)O)c2)C=CC1=O [Aurintricarboxylic acid] | > 10 µM

What follows are compounds tested on HL-60 (assay: not given). Details: 72 h.
Procedure, shortened: as §1

Compound | IC50 (cell viability)
CN(C)C(=O)[C@H](O)[C@H](Cc1ccccc1)NC(=O)c1cc2cc(Cl)ccc2[nH]1 | > 10 µM
COc1ccc(CNC(=O)Nc2ncc([N+](=O)[O-])s2)cc1 | > 10 µM
CCOP(=O)(OCC)C(=Cc1cc(C(C)(C)C)c(O)c(C(C)(C)C)c1)P(=O)(OCC)OCC | > 10 µM
COc1ccc(-c2ccccc2)cc1NS(=O)(=O)c1cc(Cl)cc(Cl)c1O | > 10 µM
C[C@H](NC(=O)c1sccc1OCc1ccc(Cl)cc1)c1ccccc1 | 0.751 µM
O=C(O)c1cc(Cl)cc(Cl)c1O [3,5-Dichlorosalicylic Acid] | > 10 µM
O=C(O)C(=O)CBr [3-bromopyruvic acid] | > 10 µM
NS(=O)(=O)c1ccc([N+](=O)[O-])cc1 [4-Nitrobenzenesulfonamide] | > 10 µM
Cc1ccccc1C(C(=O)NC1CCCCC1)N(C(=O)Cn1ccnc1C)c1cccc(F)c1 (stereo unspecified) [AGI-5198] | > 10 µM
